Laboratory results from US20050209446A1, “Novel 15-membered cyclic azalide, novel 16-membered cyclic diazalide derivative, and process for producing these” (Meiji Seika Kaisha Ltd., priority 2002, published 2005).
In brackets after ≈: the same amount, converted by molar mass.

What was measured:
[1] = system: Haemophilus influenzae 9334; assay: Antibacterial activity test in vitro (agar dilution MIC); format: cell-based; details: blood agar medium, 37° C., about 20 hours
Procedure: (§1) Antibacterial activities in vitro of the compounds of Examples 19 and 25 were measured as follows by referring to the standard method of Japanese Society of Chemotherapy (Chemotherapy, Vol. 29, p. 76-79, 1981). Antibacterial activities of miokamycin (MOM) was measured in the same manner for comparison.
(§2) For each of the solutions of the test drugs, which were dissolved in methanol so as to be 6,400 μg/ml, serial two-fold diluents with methanol were prepared. Each 200 μl of the test drug solutions prepared was placed in a laboratory dish, and the agar medium for sensitivity measurement, which was added with 5% equine sterile defibrinated blood, 15 μg/ml, β-Nicotinamide-adenine dinucleotide and 2.5 μg/ml hemin, was dispensed in 10 ml aliquots into the dish and then mixed with the solution for dilution to prepare the agar plate containing the test drug. A given amount of the liquid medium for the sensitivity measurement, which was prepared so as to contain a given amount of test bacterium was inoculated on the agar plate containing the test drug by a microplanter (Sakuma Seisakusyo, Co. Ltd.), and after the inoculation, the plate was incubated at 37° C. for about 20 hours. After the incubation, the existence of growth of the test bacterium was visually observed, and a minimum concentration at which no growth was observed was defined as a minimum inhibitory concentration of a test drug (MIC) against each of test bacteria.

[2] = system: Micrococcus luteus ATCC9341; assay: as above; format: cell-based; details: blood agar medium, 37° C., about 20 hours
Procedure: as §1, §2

[3] = system: Moraxella catarrhalis W-0506; assay: as above; format: cell-based; details: 37° C., about 20 hours; for Minimum inhibitory concentration (MIC): blood agar medium
Procedure: as §1, §2

[4] = system: Staphylococcus aureus Smith; assay: as above; format: cell-based; details: blood agar medium, 37° C., about 20 hours
Procedure: as §1, §2

[5] = system: Streptococcus pneumoniae DP1 TypeI; assay: as above; format: cell-based; details: blood agar medium, 37° C., about 20 hours
Procedure: as §1, §2

[6] = system: Streptococcus pneumoniae IP692; assay: as above; format: cell-based; details: blood agar medium, 37° C., about 20 hours
Procedure: as §1, §2

[7] = format: in vitro ADME, mouse
Procedure: Antibacterial activities of the compound of Example 19 after treatment with mouse liver homogenate were examined as follows. Antibacterial activities of MOM were examined in the same manner for comparison. The liver was collected from a mouse, and added with a phosphate buffer to prepare 5% homogenate. A 50 μl of the test drug solution, dissolved in methanol so as to be 150 μg/ml, was added to 1.45 ml of the mouse liver homogenate, and the mixture was allowed to react at 37° C. Each portion of the reaction mixture was collected at the beginning of the reaction, and after 10, 20 and 40 minutes, and added with a given volume of an acetonitrile solution to prepare each bioassay sample for the measurement of a concentration of the test drug. […] After the incubation, a diameter of growth inhibitory circle of Micrococcus luteus ATCC9341 observed around the paper disc was measured with a digital slide calipers. […] On the basis of a calibration curve which was drawn from the concentrations and the diameters of growth inhibitory circles of the standard solutions, residual activities of the samples at the above sampling times were calculated, and compared with antibacterial activities at the beginning of the reaction.

test bacteria = assay: Antibacterial activity test in vitro, overall statement; format: cell-based; details: summary of Table 1
Procedure: as §1
as §2, with “After the incubation, the existence of growth of the test bacterium was visually observed, and a minimum concentration at which no growth was observed was defined as a minimum inhibitory concentration of a test drug (MIC) against each of test bacteria.” left out

[8] = read-out: Minimum inhibitory concentration (MIC)

Structure (SMILES) | Minimum inhibitory concentration (MIC) [1] [µg/mL] | Minimum inhibitory concentration (MIC) [2] [µg/mL] | Minimum inhibitory concentration (MIC) [3] [µg/mL] | Minimum inhibitory concentration (MIC) [4] [µg/mL] | Minimum inhibitory concentration (MIC) [5] [µg/mL] | Minimum inhibitory concentration (MIC) [6] [µg/mL] | residual antibacterial activities after treatment with mouse liver homogenate, compared with the start of the reaction [7] | antibacterial activities compared with MOM (test bacteria) | MIC [1, 8] [µg/mL] | MIC [2, 8] [µg/mL] | MIC ([3]; W0506, blood agar medium, read-out: Minimum inhibitory concentration (MIC)) [µg/mL] | MIC [4, 8] [µg/mL] | MIC ([5]; DP1TYPEI, read-out: Minimum inhibitory concentration (MIC)) [µg/mL] | MIC [6, 8] [µg/mL]
CCC(=O)O[C@@H]1CC(=O)O[C@H](C)CCN(CCCCc2ccccc2)C[C@H](O)[C@H](C)C[C@H](CC=O)[C@H](O[C@@H]2O[C@H](C)[C@@H](O[C@H]3C[C@@](C)(OC(C)=O)[C@@H](OC(=O)CC)[C@H](C)O3)[C@H](N(C)C)[C@H]2O)[C@H]1OC [Example 19] | 2 (≈ 2.04 µM) | 0.03 (≈ 0.0306 µM) | 0.25 (≈ 0.255 µM) | 0.5 (≈ 0.511 µM) | 0.06 (≈ 0.0613 µM) | 0.13 (≈ 0.133 µM) | no decrease in antibacterial activities | higher antibacterial activities than MOM | – | – | – | – | – | –
CCC(=O)O[C@@H]1CC(=O)O[C@H](C)CCN(CCCc2ccnc3ccccc23)C[C@H](O)[C@H](C)C[C@H](CC=O)[C@H](O[C@@H]2O[C@H](C)[C@@H](O[C@H]3C[C@@](C)(OC(C)=O)[C@@H](OC(=O)CC)[C@H](C)O3)[C@H](N(C)C)[C@H]2O)[C@H]1OC [Example 25, (−)-(3R,4S,5S,6R,8R,9R,14R)-5-[4-O-(3-O-acetyl-2,6-dideoxy-3-C-methyl-4-O-propionyl-α-L-ribo-hexopyranosyl)-3,6-dideoxy-3-dimethylamino-8-D-glucopyranosyl]-6-formylmethyl-9-hydroxy-4-methoxy-8-methyl-3-propionyloxy-11-(3-(quinolin-4-yl)propyl)-11-aza-pentadecan-14-olide] | 1 (≈ 0.984 µM) | 0.03 (≈ 0.0295 µM) | 0.25 (≈ 0.246 µM) | 0.5 (≈ 0.492 µM) | 0.06 (≈ 0.059 µM) | 0.06 (≈ 0.059 µM) | – | higher antibacterial activities than MOM | – | – | – | – | – | –
CCC(=O)O[C@@H]1CC(=O)O[C@H](C)C/C=C/C=C/[C@H](OC(C)=O)[C@H](C)C[C@H](CC=O)[C@H](O[C@@H]2O[C@H](C)[C@@H](O[C@H]3C[C@@](C)(OC(C)=O)[C@@H](OC(=O)CC)[C@H](C)O3)[C@H](N(C)C)[C@H]2O)[C@H]1OC [MOM, miokamycin, reference compound] | – | – | – | – | – | – | apparent decreases in antibacterial activities | – | 4 (≈ 4.45 µM) | 0.13 (≈ 0.145 µM) | 1 (≈ 1.11 µM) | 1 (≈ 1.11 µM) | 0.25 (≈ 0.278 µM) | 0.25 (≈ 0.278 µM)
